In ChEMBL document CHEMBL4428032, “Furofuran Lignan Glucosides with Estrogen-Inhibitory Properties from the Bangladeshi Medicinal Plant Terminalia citrina” (2016):
Activity calls are given as the source filed them. No cut-off for these calls is given here.

What was measured:
MCF7 [1] = assay: Estrogen-like activity in human MCF7 cells assessed as increase in cell proliferation after 96 hrs by alamar blue assay; type: functional, cell-based
T47D [2] = assay: Estrogen-like activity in human T47D cells assessed as increase in cell proliferation after 96 hrs by alamar blue assay; type: functional, cell-based
MCF7 [3] = assay: Antiestrogenic activity in human MCF7 cells assessed as compound concentration required to decrease 100 pM E2-induced cell proliferation to equivalent levels induced by 50 pM E2 after 96 hrs by alamar blue assay; type: functional
Leishmania major = assay: Leishmanicidal activity against Leishmania major promastigotes at 100 ug/ml after 48 hrs by MTT assay; type: functional, organism-based
T47D [4] = assay: Antiestrogenic activity in human T47D cells assessed as inhibition of E2-induced cell proliferation up to 10 uM after 96 hrs by alamar blue assay relative to control; type: functional
T47D [5] = assay: Antiestrogenic activity in human T47D cells assessed as compound concentration required to decrease 100 pM E2-induced cell proliferation to equivalent levels induced by 50 pM E2 after 96 hrs by alamar blue assay; type: functional
T47D [6] = assay: Antiestrogenic activity in human T47D cells assessed as compound concentration required to decrease 100 pM E2-induced cell proliferation to equivalent levels induced by 10 pM E2 after 96 hrs by alamar blue assay; type: functional
MCF7 [7] = assay: Antiestrogenic activity in human MCF7 cells assessed as compound concentration required to decrease 100 pM E2-induced cell proliferation to equivalent levels induced by 10 pM E2 after 96 hrs by alamar blue assay; type: functional
MCF7 [8] = assay: Antiestrogenic activity in human MCF7 cells assessed as inhibition of E2-induced cell proliferation up to 10 uM after 96 hrs by alamar blue assay relative to control; type: functional
MCF7 [9] = assay: Antiestrogenic activity in human MCF7 cells assessed as compound concentration required to decrease 100 pM E2-induced cell proliferation to equivalent levels induced by 1 pM E2 after 96 hrs by alamar blue assay; type: functional
T47D [10] = assay: Antiestrogenic activity in human T47D cells assessed as compound concentration required to decrease 100 pM E2-induced cell proliferation to equivalent levels induced by 1 pM E2 after 96 hrs by alamar blue assay; type: functional

COc1cc([C@H]2OC[C@H]3[C@@H]2CO[C@@H]3c2cc(OC)c(OC)c(OC)c2O[C@@H]2O[C@H](CO)[C@@H](O)[C@H](O)[C@H]2O)cc2c1OCO2
Activity (MCF7 [1]): inactive | Activity (T47D [2]): inactive | Activity (MCF7 [3]): <0.01 µM | Activity (Leishmania major): inactive

COc1cc([C@@H]2OC[C@@H]3[C@H]2CO[C@H]3c2cc(O[C@@H]3O[C@H](CO)[C@@H](O)[C@H](O)[C@H]3O)c(OC)c(OC)c2OC)c(OC)c(OC)c1OC
inhibition (INH) (T47D [4]): >50% | Activity (MCF7 [1]): inactive | Activity (T47D [5]): <0.01 µM | Activity (T47D [2]): inactive | Activity (MCF7 [3]): <0.01 µM | Activity (T47D [6]): 1 µM | Activity (Leishmania major): inactive

COc1cc([C@H]2OC[C@H]3[C@@H]2CO[C@H]3c2cc(OC)c(OC)c(OC)c2O[C@@H]2O[C@H](CO)[C@@H](O)[C@H](O)[C@H]2O)cc2c1OCO2
Activity (MCF7 [7]): 0.6 µM | Activity (MCF7 [1]): inactive | Activity (T47D [5]): 5.6 µM | Activity (T47D [2]): inactive | inhibition (INH) (MCF7 [8]): >50% | Activity (MCF7 [3]): <0.01 µM | Activity (Leishmania major): inactive

COc1cc([C@@H]2OC[C@@H]3[C@H]2CO[C@H]3c2cc(O)c(OC)c(OC)c2O[C@@H]2O[C@H](CO)[C@@H](O)[C@H](O)[C@H]2O)c(OC)c(OC)c1OC
Activity (MCF7 [1]): inactive | Activity (T47D [5]): <0.01 µM | Activity (T47D [2]): inactive | Activity (MCF7 [3]): <0.01 µM | Activity (Leishmania major): inactive

COc1c(O)cc([C@H]2OC[C@H]3[C@@H]2CO[C@@H]3c2cc3c(c(OC)c2OC)OCO3)c(O[C@@H]2O[C@H](CO)[C@@H](O)[C@H](O)[C@H]2O)c1OC
Activity (MCF7 [7]): <0.01 µM | Activity (MCF7 [1]): inactive | Activity (T47D [5]): <0.01 µM | Activity (T47D [2]): inactive | inhibition (INH) (MCF7 [8]): >90% | Activity (MCF7 [3]): <0.01 µM | Activity (Leishmania major): inactive

COc1cc([C@H]2OC[C@H]3[C@@H]2CO[C@@H]3c2cc(OC)c(OC)c(OC)c2O[C@@H]2O[C@H](CO)[C@@H](O)[C@H](O)[C@H]2O)cc(OC)c1OC
inhibition (INH) (T47D [4]): >90% | Activity (MCF7 [7]): 9.8 µM | Activity (MCF7 [1]): inactive | Activity (T47D [5]): <0.01 µM | Activity (T47D [2]): inactive | inhibition (INH) (MCF7 [8]): >50% | Activity (MCF7 [3]): <0.01 µM | Activity (T47D [6]): <0.01 µM | Activity (Leishmania major): inactive

COc1cc([C@@H]2OC[C@H]3[C@@H]2CO[C@@H]3c2cc(OC)c(OC)c(OC)c2O[C@@H]2O[C@H](CO)[C@@H](O)[C@H](O)[C@H]2O)c(O)c(OC)c1OC
Activity (MCF7 [7]): <0.01 µM | Activity (MCF7 [1]): inactive | Activity (T47D [5]): <0.1 µM | Activity (T47D [2]): inactive | inhibition (INH) (MCF7 [8]): >90% | Activity (MCF7 [3]): <0.01 µM | Activity (Leishmania major): inactive

COc1cc([C@H]2OC[C@H]3[C@@H]2CO[C@@H]3c2cc(OC)c3c(c2)OCO3)cc(O[C@@H]2O[C@H](CO)[C@@H](O)[C@H](O)[C@H]2O)c1OC
inhibition (INH) (T47D [4]): >90% | Activity (MCF7 [1]): inactive | Activity (T47D [5]): <0.01 µM | Activity (T47D [2]): inactive | Activity (MCF7 [3]): <0.01 µM | Activity (T47D [6]): <0.01 µM | Activity (Leishmania major): inactive

COc1c(O)cc([C@H]2OC[C@H]3[C@@H]2CO[C@@H]3c2ccc3c(c2)OCO3)c(O[C@@H]2O[C@H](CO)[C@@H](O)[C@H](O)[C@H]2O)c1OC
Activity (MCF7 [1]): inactive | Activity (T47D [5]): <0.01 µM | Activity (T47D [2]): inactive | Activity (MCF7 [3]): <0.01 µM | Activity (Leishmania major): inactive

COc1cc([C@H]2OC[C@H]3[C@@H]2CO[C@@H]3c2cc(OC)c(OC)c(OC)c2O[C@@H]2O[C@H](CO)[C@@H](O)[C@H](O)[C@H]2O)c(O)c(OC)c1OC
Activity (MCF7 [1]): inactive | Activity (T47D [5]): <0.01 µM | Activity (T47D [2]): inactive | Activity (MCF7 [3]): <0.01 µM | Activity (Leishmania major): inactive

COc1cc([C@H]2OC[C@H]3[C@@H]2CO[C@@H]3c2ccc3c(c2)OCO3)c(O[C@@H]2O[C@H](CO)[C@@H](O)[C@H](O)[C@H]2O)c(OC)c1OC
inhibition (INH) (T47D [4]): >90% | Activity (MCF7 [9]): 3.5 µM | Activity (MCF7 [7]): <0.01 µM | Activity (MCF7 [1]): inactive | Activity (T47D [5]): <0.01 µM | Activity (T47D [2]): inactive | Activity (MCF7 [3]): <0.01 µM | Activity (T47D [6]): <0.01 µM | Activity (Leishmania major): inactive

COc1cc([C@H]2OC[C@H]3[C@@H]2CO[C@@H]3c2cc(O)c(OC)c(OC)c2O[C@@H]2O[C@H](CO)[C@@H](O)[C@H](O)[C@H]2O)cc2c1OCO2
Activity (MCF7 [7]): <0.1 µM | Activity (MCF7 [1]): inactive | Activity (T47D [5]): 10 µM | Activity (T47D [2]): inactive | inhibition (INH) (MCF7 [8]): >90% | Activity (MCF7 [3]): <0.01 µM | Activity (Leishmania major): inactive

COc1c(O)cc([C@@H]2OC[C@@H]3[C@H]2CO[C@H]3c2cc(O[C@@H]3O[C@H](CO)[C@@H](O)[C@H](O)[C@H]3O)c(OC)c(OC)c2OC)c(OC)c1OC
Activity (MCF7 [7]): <0.1 µM | Activity (MCF7 [1]): inactive | Activity (T47D [5]): <0.01 µM | Activity (T47D [2]): inactive | inhibition (INH) (MCF7 [8]): >90% | Activity (MCF7 [3]): <0.01 µM | Activity (Leishmania major): inactive

CC/C(=C(\c1ccccc1)c1ccc(OCCN(C)C)cc1)c1ccccc1 [TAMOXIFEN]
Activity (MCF7 [9]): 4.5 µM | Activity (MCF7 [7]): 0.3 µM | Activity (T47D [5]): 0.1 µM | Activity (T47D [10]): 7 µM | Activity (MCF7 [3]): 0.1 µM | Activity (T47D [6]): 0.9 µM
